Results taken from a melting point compilation (Tetko et al.; mined from patent text by program, amines drawn as free bases though some values may be those of a salt).

| Compound | melting point [°C] |
| --- | --- |
| CCc1ncnc(NC2CCc3cc(OC)ccc3C2)c1Cl (centres undefined) | 70 to 71 |
| CCC(=O)NCC[C@@H]1CCc2cc(O)c3c(c21)CCO3 | 149 to 152 |
| COCC(C)Nc1cc2c(=O)n(NS(C)(=O)=O)c(=O)[nH]c2cc1[N+](=O)[O-] (centres undefined) | 103 to 111 |
| COc1ncccc1C(=O)N(C(C)C)C(C)C | 109 |
| Cc1ccccc1-c1nc(COc2cccc3cc(NS(=O)(=O)C(F)(F)F)ccc23)co1 | 127 to 130 |
| Clc1nc(SCc2ccccc2)nc2nc[nH]c12 | 176 to 178 |
| CN(C)C(=O)c1cccn1N1C(=O)c2ccccc2C1=O | 153 to 155 |
| CN1C(=O)c2ccccc2OC1(C)COc1ccc(N)cc1 (centres undefined) | 162 to 164 |
| CCCOc1cc(C2(C)CNC(=O)O2)ccc1OC (centres undefined) | 78 |
| COc1cc2ncnc(N3CCN(C(=O)NCc4ccsc4)CC3)c2cc1OC | 178 to 179 |
| CCCCCCCCCCCC(O)CC1COC1=O (centres undefined) | 44.5 to 46 |
| COc1ccc2cc(C(C)C(=O)OCc3ccc(OC(=O)OCCC(C)(C)C)cc3)ccc2c1 (centres undefined) | 63 to 64 |
| COc1ccc2c(c1)C(=O)C(Cc1ccccc1)CS2 (centres undefined) | 66 to 68 |
| Cc1ccnc(N2CCN(CCCCC3Sc4cc(O)ccc4NC3=O)CC2)c1 (centres undefined) | 212 |
| CC=CC(=O)N(CCCC(=O)O)C(C)(C)CC(C)(C)C | 92 to 93 |
| Cc1oc(-c2ccco2)nc1COc1ccc(COc2nn(Cc3ccccc3)cc2C(=O)O)cc1Cl | 191 to 192 |
| CNC(=O)Nc1ccc2c(c1)C(CN1CCC(n3ccc4cc(Cl)ccc43)CC1)CC2 (centres undefined) | 193 to 195 |
| Cn1c(COCCn2cnc3c(N)nc4ccccc4c32)cc2ccccc21 | 243 to 245 |
| Cc1ccc2c(c1)CC(Cl)c1cc(F)ccc1S2 (centres undefined) | 63 to 64 |
| CCCC(=O)Oc1ccc(C)cc1[C@H](CCN(C(C)C)C(C)C)c1ccccc1 | 116 to 119 |
| CCCCC(NC(=O)OCc1ccccc1)C(=O)Nc1n[nH]c(=S)s1 (centres undefined) | 169 to 171 |
| CC(=O)N1N=C2C(=Cc3ccccc3)CS(=O)(=O)CC2C1c1ccccc1 (centres undefined) | 218 to 220 |
| O=C(NC1CC1)c1ccc2c(=O)nc(-c3ccccn3)sc2c1 | 272 to 274 |
| CCCCCCCCCCCCCCCCC#CCC(CO)CO | 55 |
| OCCNC(=S)C1(c2ccccn2)CCCS1 (centres undefined) | 132 |

| Compound | melting point [°C] |
| --- | --- |
| COc1ccc(C(=O)Nc2c(Cl)cncc2Cl)c2c3ccccc3n(Cc3ccc(F)cc3)c12 | 222 to 225 |
| C=C(C(=O)c1ccc(C(=O)O)cc1)c1ccc(OC)c(-c2cccs2)c1 | 163 to 164 |
| O=CN1CCC(Oc2c(F)c(F)c(F)c(F)c2F)(c2ccccc2)CC1 | 118 to 119 |
| CC(=O)Nc1c(N)cc(C(=O)O)c(O)c1Br | 210 to 211 |
| Cc1ccc(-c2nnc(N3CCCCC3)nc2-c2ccc(C)cc2)cc1 | 141 to 143 |
| Cc1ccc2cccc(OCc3c(Cl)ccc(S(=O)(=O)N4CCCC4C(=O)NCCCCCO)c3Cl)c2n1 (centres undefined) | 64 |
| O=C(Nc1ccc(Br)cc1)N1CCN2CCC1CC2 | 228 to 231 |
| CCOC(=O)c1cnc2[nH]ncc2c1O | 275 |
| O=C(Nc1cccnc1NCc1ccc(Cl)cc1)c1ccccc1F | 76 to 78 |
| CN1Cc2c(-c3nc(CN4C(=O)c5ccccc5C4=O)no3)ncn2-c2cccc(Cl)c2C1=O | 237 to 239 |
| Clc1c(I)c(Cl)c(I)c(Cl)c1I | > 300 |
| CN(C(=O)N[C@@H](Cc1ccc(Oc2nccc3ccncc23)cc1)C(=O)O)c1ccccc1Cc1ccccc1 | 128 |
| CCOC(=O)C(=O)c1ccc(OCCCn2c(=O)c3ccccc3c3ccccc32)cc1 | 95 to 97 |
| CC(C)(C)c1cc(-n2nc3ccc(Cl)cc3n2)c(O)c(C(C)(C)C)c1 | 151 to 154 |
| CC(=O)NC[C@H]1CN(c2ccc(N3CCC4(CC3)OCCS4)c(F)c2)C(=O)O1 | 160 to 164 |
| CC(C)CNC(=O)[C@H]1C[C@H](C(=O)OC(C)(C)C)N(C(=O)CNC(=O)Nc2cccc(C(=O)O)c2)[C@@H]1c1ccccc1F (racemic) | 160 |
| C=CCn1cnnc1-c1c(Cl)c(Cl)cc2nc(OC)c(OC)nc12 | 206 to 208 |
| COc1ccc2c(c1)C(NC(=O)OCc1ccccc1)C(=O)N2c1ccc(F)cc1 (centres undefined) | 154 to 156 |
| CCC(C(=O)N(CC)CC)n1cc(Cl)c(-c2ccccc2)n1 (centres undefined) | 47 to 49 |
| NC(=O)c1cc(-n2c(-c3ccccc3)cc3c2CCc2ccccc2-3)ccc1O | 213 to 215 |
| CCOCc1nc2c(N)nc3cc(-c4ccccc4)ccc3c2n1CC(C)(C)NS(C)(=O)=O | 239 to 242 |
| CN1C2CCCC1CC(c1ccc(I)nn1)C2 (centres undefined) | 163 to 166 |
| CN(C(=O)OC(C)(C)C)C1CC=C(c2c[nH]c3ccc([N+](=O)[O-])cc23)CC1 (centres undefined) | 224 to 226 |
| Cc1cccc(OS(=O)(=O)c2ccc(N3CCN(C)C3=O)cc2)c1 | 123 to 125 |
| CC1=Cc2ccncc2C(C)(NS(=O)(=O)c2ccc(C)cc2)c2ccccc21 (centres undefined) | 174 to 177 |

| Compound | melting point [°C] |
| --- | --- |
| COc1ccc2cccc(C(CO)CNC(=O)CF)c2c1 (centres undefined) | 49 to 51 |
| CC(C#Cc1ccc(-c2ccccc2)o1)N(O)C(N)=O (centres undefined) | 163 to 164 |
| CCOc1ccc(N2CCN(c3c(C)c4c(c(OC)c3C)OC(C)C4)CC2)cc1 (centres undefined) | 117 to 119 |
| O=C(NCC(F)(F)F)c1ccc(C(F)(F)F)cc1 | 117 |
| Cc1nc2ccc(C(=O)NS(=O)(=O)c3ccccc3)nc2n1Cc1ccc(COc2ccccc2)cc1Cl | 203 to 205 |
| CC(OS(=O)(=O)C(F)(F)F)=C(C(=O)OCc1ccccc1)N1C(=O)[C@@H](N2C(=O)c3ccccc3C2=O)[C@H]1COS(C)(=O)=O | 51 to 55 |
| Nc1nc(=O)n(CC2CCCO2)cc1F (centres undefined) | 168 to 170 |
| CC(Oc1ccc([N+](=O)[O-])cc1F)c1c(Cl)cccc1Cl (centres undefined) | 120 |
| CC(C)c1cc(Oc2ccc(Cl)cc2)nc(C(C)C)c1N=C=NC(C)(C)C | 46 to 55 |
| CC(C)(C)OC(=O)NNC1CCN(C(=O)OC(C)(C)C)CC1 | 112 to 115 |
| COc1ccc(Cc2cnc(N[N+](=O)[O-])[nH]c2=O)cn1 | 184 to 186 |
| Cc1ccc(P(C)(C)=O)cc1 | 90 to 92 |
| COc1ccc(Cn2c(S(=O)(=O)Cc3ccc(C)cn3)nc3cscc32)cc1 | 148 to 150 |
| O=C(C(=O)c1ccc(Oc2ccc(O)cc2)cc1)c1ccc(Oc2ccc(O)cc2)cc1 | 220 to 221 |
| CNC(=O)c1cnc(SC)nc1Nc1ccc2[nH]ncc2c1 | 259 to 261 |
| COC1=CC(=O)c2c(C)cc(C)cc2C1=O | 146 to 148 |
| c1ccc(Cc2c[nH]c3ccccc23)cc1 | 108 to 110 |
| CCOC(=O)c1ccc(Nc2cc(C)nc3cn[nH]c23)cc1 | 247 to 250 |
| CCCc1c(O)c(C(C)=O)cc2ccc(C(=O)OC)nc12 | 110 to 111 |
| O=C(c1ccc(-c2cnc3c(c2)N(Cc2ccccc2)CCN3)cc1)N1CCC(N2CCCC2)CC1 | 120 |
| CCCCC(C)n1ncc(-c2ccc(S(C)(=O)=O)cc2)c(-c2ccc(F)cc2)c1=O (centres undefined) | 79 to 80 |
| Cn1nc(-c2ccccc2)c(OC(C)(C)C)c1-c1ccccc1 | 106 to 108 |
| CCOC1=Cc2ccccc2N(C)c2ccc(Br)cc21 | 131 |
| Cc1oc(-c2ccccc2)nc1CCC(O)c1ccc(CCCC2OC(=O)NC2=O)cc1 (centres undefined) | 150 to 151 |
| CCOC(=O)c1cnoc1-c1cc(Cl)c(Cl)s1 | 120 to 121 |

| Compound | melting point [°C] |
| --- | --- |
| O=c1[nH]c2ncc(-c3ccc(O)cc3)nc2n1CCO | 308 to 310 |
| Clc1ccc(C2(Cn3cncn3)OCCO2)s1 | 117 |
| C=C(C)CO[C@H]1[C@H](C)OC(=O)[C@@H](NC(=O)c2nccc(OC)c2OCc2ccccc2)COC(=O)[C@@H]1Cc1ccccc1 | 50 to 52 |
| CCCCC[C@H]1CC[C@H](CCc2ccc(-c3ccc(Br)cc3F)cc2)CC1 | 57.5 |
| CC(=O)Oc1cc([N+](=O)[O-])ccc1CBr | 76.5 to 78 |
| COC(=O)c1ccc(CNC(=NC#N)NCCNC(=O)c2nc(Cl)c(N)nc2N)cc1 | 190 to 195 |
| COc1ccc(C)cc1-c1cc2ccccc2[nH]1 | 119 |
| O=C(c1ccc(Cl)cc1)c1ccc2nccc(C(=O)O)c2c1 | > 260 |
| NC(CC1c2ccccc2Oc2ccccc21)(C(=O)O)c1ccc(C(=O)O)c(O)c1 (centres undefined) | 191 to 194 |
| O=[N+]([O-])c1cccc2c(Cl)ccnc12 | 144 to 146 |
| CC(C)c1nc(C(C)(C)C)cc(-c2ccc(F)cc2)c1CO | 112 to 113 |
| Cc1cc2c(=O)n3cc(C#N)ccc3nc2s1 | 256 to 258 |
| CCOc1ccc(CCN(C(=O)O)C(=O)[C@H](CCSC)NC(C)=O)cc1OCC | 85 to 90 |
| O=C1CC(=O)C(CCCCCCCO)C1=O (centres undefined) | 121 to 124 |
| CCCCCCCC/C=C\CCCCCCCC(=O)CCCNC(=O)CCNC(=O)C1OC(C)(C)OCC1(C)C (centres undefined) | 45 to 47 |
| CCCOc1ccc(F)c2c(=O)c(-c3ccc(OC)cc3)cn(CCN3CCOCC3)c12 | 206 to 208 |
| CC(=O)Nc1ccc(OCCOC(=O)CCCNC(=O)c2cc(OCc3ccccc3)ccc2OCc2ccccc2)cc1 | 141 to 143 |
| O=C1c2cc(O)ccc2OCC1n1ccnc1 (centres undefined) | 245 to 247 |
| COc1cc(C)nc(NC(=S)NS(=O)(=O)c2ccccc2Cl)n1 | 186 to 188 |
| CC1CCC(N(CC2CCC(CN(C(=O)Nc3ccc(N4CCCC4)cc3)C3CCC(C)CC3)CC2)C(=O)Nc2ccc(N3CCCC3)cc2)CC1 (centres undefined) | 149 to 155 |
| COc1cccc2c1CCN(c1nc(C)[nH]c(=O)c1[N+](=O)[O-])CC2 | > 200 |
| CC(=O)Nc1c(C(=O)c2ccccc2)[nH]c2cccc(F)c12 | 131 to 133 |
| CCOc1cc(-c2cc(C(F)(F)F)n3ncc(-c4cc(C)nc(C)c4)c3n2)ccc1C(F)(F)F | 257 |
| NC1=NC(c2ccc(OC(F)(F)F)cc2)(c2ccc(F)c(-c3cncnc3)c2)C(=O)N1C(F)F (centres undefined) | 82 to 94 |
